Test results as given in US11833232B2, “Deodorant compositions with natural wax” (The Procter & Gamble Company, priority 2020, dated 2023).
Structures can show the parent of a compound that is named as a salt.

What was measured:
[1] = test system: two key underarm bacteria strains; assay: Raw material microbial inhibition, verdict in words over both strains; assay type: cell-based, Corynebacterium mucofaciens; Staphylococcus epidermidis
Experimental: The Tier 1 Anaerobic MIC Assay test method to generate the data of Table 2 is described below.
(§1) Tier 1 Anaerobic MIC Assay
The data in Table 2 above was generated with the following test method.
3. Microbial Strains • Staphylococcus epidermidis (clinical isolate) • Corynebacterium mucofaciens (clinical isolate)
4. Test Procedure • Inoculum Preparation • Prior to testing streak organisms for isolation on BHI with 1% Tween 80 plates, wrap with parafilm and place in 37° C. incubator. When isolated colonies appear remove one representative colony from each plate and place each in 5 ml of BHI with 1% Tween 80 media. Incubate at 37° C. with shaking overnight. Inoculate 20 ml BHI with 1% Tween 80 (per 96 deep well plate to be tested) with 20 ul of the overnight culture (1-1000 dilution). • Master Plate Preparation • Compounds/formulations to be tested are diluted across a 96 deep well plate as shown below in Table 3 (for a 1% stock solution). […] 800 ul each 1% stock solution+positive control are added to wells C1 through H1. […] 400 ul is then removed from #1 well added to the #2 well and mixed. This is then continued across the plate resulting in a 50% dilution between wells across the plate (this can be easily accomplished with an automatic 8 channel Matrix pipette set to withdraw, dispense and mix).
In row A of a 96 deep well plate pipette 180 ul of sterile BHI with 1% Tween 80 as a negative growth control. All other wells receive 180 ul of inoculum. From the master plate introduce 20 ul to the corresponding row in the test plate using an 8-channel pipette. Loaded plates are placed on a plate shaker in the 37° C. incubator and incubated overnight. The next day read the O.D. 600 on a plate reader. The MIC is the last well from the right that has no bacterial growth.

C. mucofaciens = assay: Tier 1 Anaerobic MIC Assay; assay type: cell-based, Corynebacterium mucofaciens (clinical isolate); conditions: raw material, 37° C. overnight, O.D. 600
Source text: as §1
(§2) The data in Table 2 above was generated with the following test method. The purpose of this assay is to determine if a compound or formulation has an antimicrobial effect in vitro.
(§3) It is understood that when not specifically noted in this procedure: • a) All materials, reagents and equipment required for this procedure are of appropriate design and condition of cleanliness and/or sterility as determined by their intended use. • b) The operator has been trained in aseptic technique and has been qualified to perform the procedure and accurately interpret the results. • c) All media required for this procedure was manufactured by a reputable commercial source egg. Difco, Merck etc. and has been stored and prepared as per manufacturer's instructions. • d) All routine laboratory controls, including but not limited to, media function and growth promotion tests, verification of sterility and use of positive and negative controls are being conducted.
(§4) Procedure: (All procedures performed in anaerobic chamber except where noted)
1. […]
(§5) In row A of a 96 deep well plate pipette 180 ul of sterile BHI with 1% Tween 80 as a negative growth control. […] The next day read the O.D. 600 on a plate reader. […]

S. epidermidis = assay: Tier 1 Anaerobic MIC Assay; assay type: cell-based, Staphylococcus epidermidis (clinical isolate); conditions: raw material, 37° C. overnight, O.D. 600
Source text: as §1, §2, §3, §4
1. […]
as §5

microbial inhibition concentration (MIC) (C. mucofaciens) | microbial inhibition concentration (MIC) (S. epidermidis) | Compound | performance against the bacteria as raw materials (in words) [1]
 |  | CCOC(=O)CC(O)(CC(=O)OCC)C(=O)OCC [100% Triethyl citrate, Triethyl citrate] | performing well
 |  | CC(C)=CCCC(C)=CC=O [Citral 96% ETOH, Citral] | performing well
 |  | COC(=O)CCC(=O)OC [Dimethyl Succinate 98% ETOH, Dimethyl Succinate] | performing well
< 5 ppm | 10 ppm | Cc1cc(CC(C)CC(C)(C)C)n(O)c(=O)c1.NCCO (stereo not drawn) [100 mg/ml piroctone olamine in H2O, piroctone olamine] | perform particularly well
 |  | C=CCCCCCCCCC(=O)N[C@@H](Cc1ccccc1)C(=O)O [Sepiwhite 40 mg/ml H2O ins] | performing well
 |  | C=CCc1ccc(O)c(OC)c1 [Eugenol 99% ETOH, Eugenol] | performing well
 |  | O=C([O-])[O-].[Ca+2] [Ca Carbonate 50 mg/ml H2O ins, calcium carbonate] | performing moderately well
<2 ppm | 7 ppm | N=C(N)c1ccc(OCCCCCCOc2ccc(C(=N)N)cc2)cc1 [Hexamidine 36 mg/ml H2O, Hexamidine] | perform particularly well
